# Assay results reported in article PMC6222715, “Squalene Cyclases and Cycloartenol Synthases from Polystichum polyblepharum and Six Allied Ferns” (Molecules : A Journal of Synthetic Chemistry and Natural …, 2018).
# Target: PPH (Polystichum polyblepharum, UniProt A0A3G9ELI1)
# Experiment: product formation in yeast cells, GC
# Format: cell-based
# Conditions: endogenous squalene accumulated with terbinafine; in vivo; phosphate pH 7.0
# Sequence of PPH (A0A3G9ELI1 1-685): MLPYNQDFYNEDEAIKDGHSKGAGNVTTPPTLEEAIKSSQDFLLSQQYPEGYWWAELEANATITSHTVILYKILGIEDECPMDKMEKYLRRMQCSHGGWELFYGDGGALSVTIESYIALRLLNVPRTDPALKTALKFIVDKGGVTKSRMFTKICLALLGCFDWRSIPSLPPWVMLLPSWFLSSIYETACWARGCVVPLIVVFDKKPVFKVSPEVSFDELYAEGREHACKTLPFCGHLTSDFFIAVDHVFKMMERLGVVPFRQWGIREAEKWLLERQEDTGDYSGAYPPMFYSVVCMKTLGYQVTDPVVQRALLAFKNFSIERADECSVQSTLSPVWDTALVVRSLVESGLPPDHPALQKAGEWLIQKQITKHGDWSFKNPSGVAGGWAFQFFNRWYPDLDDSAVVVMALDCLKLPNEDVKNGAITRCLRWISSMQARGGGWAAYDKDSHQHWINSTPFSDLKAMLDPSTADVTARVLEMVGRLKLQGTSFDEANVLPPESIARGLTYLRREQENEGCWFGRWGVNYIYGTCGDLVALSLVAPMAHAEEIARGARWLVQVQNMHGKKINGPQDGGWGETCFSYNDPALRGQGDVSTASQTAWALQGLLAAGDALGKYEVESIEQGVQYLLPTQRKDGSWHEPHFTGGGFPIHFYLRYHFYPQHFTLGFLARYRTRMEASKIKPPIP
smiles,measurement,value
"CC(C)=CCC/C(C)=C/CC/C(C)=C/CC/C=C(\C)CC/C=C(\C)CCC=C(C)C [compound 1, squalene]","product formation in yeast cells, GC",PPH could use the accumulated endogenous squalene as an in vivo substrate
